Laboratory results as given in paper PMC3123436 (Bioorganic & medicinal chemistry, 2011).
≈ marks a conversion by molar mass, not a printed value.

How the values were obtained:
Assay in all cases: microbe, parasite or virus in culture
Settings in all cases: Mycobacterium tuberculosis, read-out: MIC95 (95% inhibition)
[1] = test system: M. tuberculosis isolate VA1345
[2] = test system: M. tuberculosis isolate VA1215
[3] = test system: M. tuberculosis isolate UCSD14768J

SMILES | MIC [1] [µM] | MIC [2] [µM] | MIC [3] [µM]
O=C(NCCCN1CCCC1)c1ccc2c(c1)N(Cc1cccc(Cl)c1)C(=O)c1ccccc1S2 [Compound 18] | 110 (≈ 55.7 µg/mL) | 110 (≈ 55.7 µg/mL) | 110 (≈ 55.7 µg/mL)
CN(CCCNC(=O)c1ccc2c(c1)N(Cc1cccc(Cl)c1)C(=O)c1ccccc1[S+]2[O-])C1CCCCC1 (stereo not shown) [Compound 2, N-[3-(cyclohexylmethylamino)propyl]-10-[(3-chlorophenyl)methyl]-10,11-dihydro-11-oxo-dibenzo-[b,f][1,4]-thiazepine-8-carboxamide-5-oxide] | 110 (≈ 62.1 µg/mL) | 110 (≈ 62.1 µg/mL) | 110 (≈ 62.1 µg/mL)
O=C(NCCN1CCCCCC1)c1ccc2c(c1)N(Cc1cccc(Cl)c1)C(=O)c1ccccc1[S+]2[O-] (stereo not shown) [Compound 20] | 110 (≈ 59 µg/mL) | 110 (≈ 59 µg/mL) | 110 (≈ 59 µg/mL)
O=C(NCCCN1CCCC1)c1ccc2c(c1)N(Cc1cccc(Cl)c1)C(=O)c1ccccc1[S+]2[O-] (stereo not shown) [Compound 17] | 220 (≈ 115 µg/mL) | 220 (≈ 115 µg/mL) | 220 (≈ 115 µg/mL)
CCC1CCCCN1CCCNC(=O)c1ccc2c(c1)N(Cc1cccc(Cl)c1)C(=O)c1ccccc1[S+]2[O-] (stereo not shown) [Compound 12] | – | 110 (≈ 62.1 µg/mL) | –
